In PMC12564498, “Benzo[d]imidazole–Naphthalen-Arylmethanone Regioisomers as CB1 Ligands: Evaluation of Agonism via an Indirect Cytotoxicity-Based Approach” (International Journal of Molecular Sciences, 2025):
“And” between values parts separate entries of the source, which are not always exact repeats. Equal values may be shown once. Read-outs that look alike come from different tables or passages of the source.

Assays:
HEK293 cells = assay: cells; details: for cytotoxicity at 0.1 µM: read-out: % Toxicity HEK293T, 0.1 μM, 72 h, MTT, n = 3; for cytotoxicity in HEK293: Figure 4, MTT; for IC50: read-out: IC50 toxicity HEK293T; for % Toxicity HEK293T: 0.1 μM, n = 3
Experimental: (§1) HEK293, U87MG, and HL-60 cell lines were seeded in a flat-bottom 96-well plate at a density of 10,000 cells per well. […] All compounds were incubated at 0.1 μM in 200 μL of culture medium supplemented with 10% FBS, in a flat-bottom 96-well plate at a density of 10,000 cells per well, at 37 °C for 72 h. Next, 20 μL of a 5 mg/mL MTT solution was added, and the cells were incubated at 37 °C for 4 h. Then, they were solubilized with 10% sodium dodecyl sulfate (SDS) in 0.1 mM HCl and incubated overnight at 37 °C. Formazan absorbance of each well was measured using the EPOCH microplate reader (Biotek, Winooski, VT, USA) at a wavelength of 570 nm. […]
(§2) promyelocytic leukemia cells (HL-60) were maintained at 5% CO2 and 37 °C in DMEM, EMEM and RPMI medium, respectively containing 10% Fetal Bovine Serum and 100 U/mL penicillin and 100 […]
(§3) Cell viability: ([MTT - (3-(4,5-dimethylthiazol-2-yl)-2,5-diphenyltetrazolium bromide) - formazan] HEK293, U87MG, and HL-60 cells were first quantified to determine the exact number to be used in […]
(§4) with the Beer-Lambert(1).
(§5) HEK293, U87MG and HL-60 cell lines were seed in a flat-bottom 96-wells plate at a density of 10,000 […]
(§6) concentrations (0.001 μM to 10 μM) in 200 μL of respective culture medium supplemented with 10% fetal bovine serum (FBS), at 37 °C for 72 hours. Subsequently, 20 μL of 5 mg/mL MTT solution was added to each well, and cells were incubated at 37 °C for 4 h. The resulting formazan crystals were then solubilized with 10% sodium dodecyl sulfate (SDS) in 0.1 mM HCl, followed by overnight incubation at 37 °C. Untreated cells were used as the control, 0.1% of dimethyl sulfoxide (DMSO) as the vehicle control, and 0.2 % of Triton X-100 as a positive control for cell death. IC 50 toxicity values […]
(§7) same conditions described in the previous paragraph. […]
(§8) determined IC50. The stimulation with both CB ligands was performed simultaneously.
(§9) All compounds were incubated at 0.1 μM in 200 μL of culture medium supplemented with 10% FBS, in a flat-bottom 96-well plate at a density of 10,000 cells per well, at 37°C for 72 hours. Next, 20 μL of a 5 mg/mL MTT solution was added, and the cells were incubated at 37°C for 4 hours. Then, they were solubilized with 10% sodium dodecyl sulfate (SDS) in 0.1 mM HCl and incubated overnight at 37°C. Formazan absorbance of each well was measured using the EPOCH microplate reader (Biotek, USA) at a wavelength of 570 nm.
(§10) [1]Mosorov, V., The Lambert-Beer law in time domain form and its application.

U87MG cells = assay: cells; details: for cytotoxicity at 0.1 µM: read-out: % Toxicity U87MG, 0.1 μM, 72 h, MTT, n = 3; for cytotoxicity in U87MG: Figure 4, MTT, 0.001 μM to 10 μM
Experimental: as §1, §2, §3, §4, §5, §6, §7, §8, §9, §10

HL-60 cells = assay: cells; details: for cytotoxicity at 0.1 µM: read-out: % Toxicity HL-60; for % Toxicity HL-60: 0.1 μM, n = 3; for cytotoxicity in HL-60: Figure 4, MTT
Experimental: as §1, §2, §3, §4, §5, §6, §7, §8, §9, §10

[1] = target: T1, human cannabinoid CB1 receptor (Homo sapiens, UniProt P21554); assay: biochemical; type: binding; details: for inhibition at 10 µM: displacement of [3H]CP-55940 at 10 μM compound, read-out: CB1 Max Tested µM (% Displacement)
T1 construct: purchased Perkin Elmer Inc., Singapore Pte; Ltd. RBHCB1M400UA; host or cells: HEK293-EBNA cell membranes (overexpressing)

[2] = target: T2, human recombinant cannabinoid CB2 receptor (Homo sapiens, UniProt P34972); assay: CB2 radioligand displacement binding assay ([3H]CP-55940); details: for Ki: Cheng–Prusoff from IC50, [3H]CP-55940 0.5 nM; for Ki / IC50: mean ± SEM n = 3; for IC50: [3H]CP-55940 0.5 nM, hCB2 HEK293-EBNA membranes; for inhibition at 10 µM: displacement of [3H]CP-55940 at 10 μM compound, read-out: CB2 Max Tested µM (% Displacement)
T2 construct: purchased Perkin Elmer Inc., Singapore Pte; Ltd. RBXCB2M400UA; host or cells: HEK293-EBNA cell membranes (overexpressing)

[3] = Cheng–Prusoff from IC50, [3H]CP-55940 0.5 nM, mean ± SEM n = 3, read-out: CB1 Ki
[4] = [3H]CP-55940 0.5 nM, hCB1 HEK293-EBNA membranes, mean ± SEM n = 3, read-out: CB1 IC50
[5] = Homo sapiens, U-87 MG, 72 h, read-out: IC50 toxicity U87MG, MTT, 72 h
[6] = read-out: IC50 toxicity U87MG, MTT, 72 h

T1 sequence (P21554 whole entry): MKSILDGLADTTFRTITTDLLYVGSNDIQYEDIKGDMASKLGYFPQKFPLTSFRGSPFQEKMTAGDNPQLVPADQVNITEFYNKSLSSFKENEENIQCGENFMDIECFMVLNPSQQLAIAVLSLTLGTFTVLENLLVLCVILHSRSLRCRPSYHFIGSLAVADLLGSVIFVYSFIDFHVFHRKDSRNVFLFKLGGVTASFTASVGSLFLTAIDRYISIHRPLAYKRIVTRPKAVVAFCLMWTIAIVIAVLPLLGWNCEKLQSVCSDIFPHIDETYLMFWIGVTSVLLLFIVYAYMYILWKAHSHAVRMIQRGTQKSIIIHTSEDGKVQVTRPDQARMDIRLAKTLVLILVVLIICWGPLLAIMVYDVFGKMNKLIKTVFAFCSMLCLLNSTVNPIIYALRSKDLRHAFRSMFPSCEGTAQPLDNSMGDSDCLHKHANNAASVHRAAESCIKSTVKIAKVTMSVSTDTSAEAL
T2 sequence (P34972 whole entry): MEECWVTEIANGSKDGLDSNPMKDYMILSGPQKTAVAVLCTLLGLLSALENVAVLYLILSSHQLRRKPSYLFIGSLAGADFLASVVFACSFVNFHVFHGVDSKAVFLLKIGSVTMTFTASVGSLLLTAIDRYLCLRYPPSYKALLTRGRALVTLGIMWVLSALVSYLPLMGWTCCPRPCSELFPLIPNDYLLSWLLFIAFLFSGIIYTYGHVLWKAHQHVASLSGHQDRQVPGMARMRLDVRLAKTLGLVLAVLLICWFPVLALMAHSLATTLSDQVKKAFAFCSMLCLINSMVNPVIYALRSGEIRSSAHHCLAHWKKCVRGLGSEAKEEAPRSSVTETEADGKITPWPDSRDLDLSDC

| SMILES | cytotoxicity at 0.1 µM (U87MG cells; Homo sapiens, U-87 MG, 72 h) [%] | Ki [1, 3] | IC50 [1, 4] [µM] | inhibition at 10 µM [1] [%] | Ki [2] | IC50 [2] [µM] | inhibition at 10 µM [2] [%] | other results |
| --- | --- | --- | --- | --- | --- | --- | --- | --- |
| Cc1ccc(-c2nc3cc(F)ccc3n2C(=O)c2cccc3ccccc23)o1 [Compound 5e, (5-fluoro-2-(5-methylfuran-2-yl)-1H-benzo[d]imidazol-1-yl)(naphthalen-1-yl)methanone] | 39 ± 18 | 1.82 ± 1.64 µM | 7.4 ± 3.28 | > 55 | > 10 µM | > 10 | 38.5 | cytotoxicity at 0.1 µM (HEK293 cells; Homo sapiens, HEK293, 72 h): 55 ± 23%; cytotoxicity at 0.1 µM (HL-60 cells; Homo sapiens, HL-60, 72 h): 50 ± 19% |
| O=C(c1cccc2ccccc12)n1c(-c2ccco2)nc2ccc(F)cc21 [Compound 5f′, (6-fluoro-2-(furan-2-yl)-1H-benzo[d]imidazol-1-yl)(naphthalen-1-yl)methanone] | 66 | ~2.12 µM and 2.12 µM | 8.65 ± 3.11 | > 55 | > 10 µM | > 10 | 47 | IC50 (U87MG cells; [5]): 0.089 µM; % Toxicity HL-60 (HL-60 cells; 72 h, MTT): does not show any toxicity |
| Cc1c(C(=O)c2cccc3ccccc23)c2cccc3c2n1C(CN1CCOCC1)CO3 (centres unmarked) [WIN-55212-2, reference compound] | ~30 |  |  |  |  |  |  | cytotoxicity in HEK293 (HEK293 cells; 0.001 μM to 10 μM, 72 h): harmlessness; IC50 (HEK293 cells; Homo sapiens, HEK293, 72 h): > 10 µM; cytotoxicity in U87MG (U87MG cells; 72 h): exhibits cytotoxicity; IC50 (U87MG cells; [5]): 0.2 µM; IC50 (U87MG cells; [6]): 0.25 µM; cytotoxicity in HL-60 (HL-60 cells; 0.001 μM to 10 μM, 72 h): exhibits cytotoxicity; IC50 (HL-60 cells; Homo sapiens, HL-60, 72 h, read-out: IC50 toxicity HL-60): 1.39 µM; IC50 (HL-60 cells; Homo sapiens, HL-60, read-out: IC50 HL-60 cells as printed in the figure picture): 1.38 µM; displacement of specific radioligand binding (nonspecific binding definition), CB2 ([2]; 10 μM unlabeled WIN-55212-2, cannabinoid receptors): at least 84% |
| COc1ccc(C(=O)c2c(C)n(CCN3CCOCC3)c3cc(I)ccc23)cc1 [AM630, reference compound] |  |  |  |  |  |  |  | cytotoxicity in HEK293 (HEK293 cells; 0.001 μM to 10 μM, 72 h): non-toxic; IC50 (HEK293 cells; MTT, 72 h, 0.001 μM to 10 μM): > 10 µM; cytotoxicity in U87MG (U87MG cells; 72 h): non-toxic; IC50 (U87MG cells; [6]): > 10 µM; cytotoxicity in HL-60 (HL-60 cells; 0.001 μM to 10 μM, 72 h): non-toxic; IC50 (HL-60 cells; read-out: IC50 toxicity HL-60, MTT, 72 h, 0.001 μM to 10 μM): > 10 µM |
| COc1cccc(-c2nc3ccc(Cl)cc3n2C(=O)c2cccc3ccccc23)c1 [4b′] | 39 ± 20 | > 10 µM | > 10 | 43 | ~4.46 µM and 4.46 µM | 6.76 ± 3.09 | 58 | cytotoxicity at 0.1 µM (HEK293 cells; Homo sapiens, HEK293, 72 h): 50 ± 11%; % Toxicity HL-60 (HL-60 cells; 72 h, MTT): 52 ± 13%; cytotoxicity at 0.1 µM (HL-60 cells; Homo sapiens, HL-60, 72 h): 52% |
| O=C(c1cccc2ccccc12)n1c(-c2cccnc2)nc2cc(F)ccc21 [Compound 5a] |  | > 10 µM | > 10 | 41 | > 10 µM | > 10 | 43 |  |
| O=C(c1cccc2ccccc12)n1c(-c2ccon2)nc2ccc(Cl)cc21 [4d′] |  |  |  | 47 | > 10 µM | > 10 | 42 | IC50 [1]: > 10 µM; Ki ([1]; CB1 Ki): > 10 µM |
| Cc1cc(-c2nc3ccc(F)cc3n2C(=O)c2cccc3ccccc23)no1 [5c′, (6-fluoro-2-(5-methylisoxazol-3-yl)-1H-benzo[d]imidazol-1-yl)(naphthalen-1-yl)methanone] |  | > 10 µM | > 10 | 37 | > 10 µM | > 10 | 29 |  |
| O=C(c1cccc2ccccc12)n1c(-c2ccon2)nc2ccc(F)cc21 [5d′, (6-fluoro-2-(isoxazol-3-yl)-1H-benzo[d]imidazol-1-yl)(naphthalen-1-yl)methanone] |  | > 10 µM | > 10 | 34 | > 10 µM | > 10 | 26 |  |
| O=C(c1cccc2ccccc12)n1c(-c2ccco2)nc2ccc(Cl)cc21 [Compound 4f′] |  | > 10 µM | > 10 | 47.5 | > 10 µM | > 10 | 53.2 | % Toxicity HEK293T (HEK293 cells; 72 h, MTT): 50 ± 23%; cytotoxicity at 0.1 µM (HEK293 cells; Homo sapiens, HEK293, 72 h): 50%; % Toxicity HL-60 (HL-60 cells; 72 h, MTT): 10 ± 19%; cytotoxicity at 0.1 µM (HL-60 cells; Homo sapiens, HL-60, 72 h): 10% |
| Cc1cc(-c2nc3ccc(Cl)cc3n2C(=O)c2cccc3ccccc23)no1 [4c′] |  | > 10 µM | > 10 | 44 | > 10 µM | > 10 | 29 |  |
| O=C(c1cccc2ccccc12)n1c(-c2ccon2)nc2cc(Cl)ccc21 [Compound 4d] | 50 | ~1.86 µM and 1.86 µM | 7.58 ± 4.21 | > 55 | > 10 µM | > 10 | 15 | % Toxicity HEK293T (HEK293 cells; 72 h, MTT): 10 ± 9%; cytotoxicity at 0.1 µM (HEK293 cells; Homo sapiens, HEK293, 72 h): 10%; % Toxicity U87MG (U87MG cells; 0.1 μM, 72 h, MTT, n = 3): 50 ± 14% |
| O=C(c1cccc2ccccc12)n1c(-c2cccnc2)nc2ccc(F)cc21 [5a′, (6-fluoro-2-(pyridin-3-yl)-1H-benzo[d]imidazol-1-yl)(naphthalen-1-yl)methanone] |  | > 10 µM | > 10 | 9.5 | > 10 µM | > 10 | 16 |  |
| O=C(c1cccc2ccccc12)n1c(-c2ccco2)nc2cc(F)ccc21 [Compound 5f, (5-fluoro-2-(furan-2-yl)-1H-benzo[d]imidazol-1-yl)(naphthalen-1-yl)methanone] |  | ~1.48 µM and 1.48 µM | 6.03 ± 4.09 | > 55 | > 10 µM | > 10 | 54.5 | IC50 U87MG cells as printed in the figure picture (U87MG cells; MTT dose–response curve, unit not given): 8.963 x 10^-8 |
